Assay results taken from patent publication US20250136576A1, “Heterocyclic Compounds and Uses Thereof” (ACEA Therapeutics, Inc., priority 2021, published 2025).
Read-outs that look alike come from different tables or passages of the source.

Tests used:
Assay type in all cases: cell-based
KM12-luc cells = assay: Cell proliferation and growth inhibition assay (CCK-8) in KM12-luc; settings: KM12-luc cells, treated with test compounds for 72 hrs, CCK-8 viability, read-out: NTRK IC50 in KM12-luc
Outline: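 Cells were grown at 37 °C, 5% CO2 with 10% FBS: MV-4-11 in IMDM, H1975 in RPMI 1640, KM12-luc in DMEM. Viability was read by CCK-8 (1-4 hrs reagent incubation, absorbance at OD450). IC50 came from a non-linear sigmoidal dose-response fit.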

H1975 cells = assay: Cell proliferation and growth inhibition assay (CCK-8) in H1975; settings: Homo sapiens, NCI-H1975, 72 h, treated with test compounds for 72 hrs, CCK-8 viability, read-out: EGFR IC50 in H1975
Outline: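 Cells seeded at 30,000 (MV-4-11, IMDM) or 3,000 (H1975, RPMI 1640) per well, left 24 h, then compound-treated 72 h at 37 °C, 5% CO2, 10% FBS. Viability read by CCK-8 (1–4 h) at OD450. IC50 from sigmoidal dose-response nonlinear regression.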

MV-4-11 (AML) cells = assay: Cell proliferation and growth inhibition assay (CCK-8) in MV-4-11; settings: Homo sapiens, MV4-11; MV-4-11 cells, treated with test compounds for 72 hrs, CCK-8 viability
Procedure: MV-4-11 and H1975 cells were obtained from the American Type Culture Collection and KM12-luc cells were obtained from JCRB Cell Bank. All cell lines were maintained at 37° C. with 5% C02, in media supplemented with 10% fetal bovine serum and penicillin (100 units/mL) and streptomycin (100 μg/mL). MV-4-11 cells were maintained in Iscove's Modified Dubecco's Medium, H1975 cells were cultured with RPMI 1640 media, and KM12-luc cells were maintained in Dulbecco's Modification of Eagle's Medium. CCK-8 reagent was obtained from Yeasen.
Cell proliferation was assessed by CCK-8 assay (Yeasen) per the manufacturer's instructions. The MV-4-11 (AML), H1975, and KM12-luc cells were seeded at 30,000, 3,000 and 2,500 cells per well onto 96-well plates, and after a 24 h incubation, the cells were treated with test compounds for 72 hrs. Cell viability was assayed by incubating the cells with CCK-8 reagent for 1-4 hrs. Absorbance was measured at OD450 using the Beckman DTX880. The data was calculated using GraphPad Prism version 6.01. The IC50 values were fitted using a non-linear regression model with a sigmoidal dose response.

| IC50 (H1975 cells) [nM] | IC50 (MV-4-11 (AML) cells) [nM] | Structure (SMILES) | IC50 (KM12-luc cells; KM12-Luc, 72 h) [nM] | IC50 (KM12-luc cells) [nM] |
| --- | --- | --- | --- | --- |
| 97.8 | 3 | CC(=O)Nc1cc(Nc2ncc(C(F)(F)F)c(-c3c[nH]c4c(C)cccc34)n2)ccc1N1CC[C@H](N(C)C)C1 [Compound S-366, (S)—N-(2-(3-(dimethylamino)pyrrolidin-1-yl)-5-((4-(7-methyl-1H-indol-3-yl)-5-(trifluoromethyl)pyrimidin-2-yl)amino)phenyl)acetamide] | 3.1 | – |
| 75.4 | 3.1 | CN(C)CCN(C)c1ccc(Nc2ncc(C(F)(F)F)c(-c3c[nH]c4c(F)cccc34)n2)cc1N [Compound 335, N^1-(2-(dimethylamino)ethyl)-N^1-methyl-N^4-(4-(7-fluoro-1H-indol-3-yl)-5-(trifluoromethyl)pyrimidin-2-yl)benzene-1,2,4-triamine] | 6.1 | – |
| 772 | 29.7 | CCN(CCN(C)C)c1ccc(Nc2ncc(C(F)(F)F)c(-c3c[nH]c4cccc(F)c34)n2)cc1N [Compound 319, N^1-(2-(dimethylamino)ethyl)-N^1-ethyl-N^4-(4-(4-fluoro-1H-indol-3-yl)-5-(trifluoromethyl)pyrimidin-2-yl)benzene-1,2,4-triamine] | 19.1 | – |
| 152 | 3 | CC(=O)Nc1cc(Nc2ncc(Cl)c(-c3c[nH]c4c(C)cccc34)n2)ccc1N1CC[C@@H](N(C)C)C1 [Compound R-426, (R)—N-(5-((5-chloro-4-(7-methyl-1H-indol-3-yl)pyrimidin-2-yl)amino)-2-(3-(dimethylamino)pyrrolidin-1-yl)phenyl)acetamide] | 2.1 | – |
| 299 | 2.9 | CC(=O)Nc1cc(Nc2ncc(Cl)c(-c3c[nH]c4ccccc34)n2)ccc1N1CCC(N(C)C)C1 (centres unmarked) [Compound 444, N-(5-((5-chloro-4-(1H-indol-3-yl)pyrimidin-2-yl)amino)-2-(3-(dimethylamino)pyrrolidin-1-yl)phenyl)acetamide] | 5.5 | – |
| 167 | 3.2 | Cc1cccc2c(-c3nc(Nc4ccc(N5CC[C@H](N(C)C)C5)c(N)c4)ncc3Cl)cn(C)c12 [Compound S-425, (S)—N^1-(5-chloro-4-(1,7-dimethyl-1H-indol-3-yl)pyrimidin-2-yl)-4-(3-(dimethylamino)pyrrolidin-1-yl)benzene-1,3-diamine] | – | 3.5 |
| 168 | 5.2 | COc1cccc2c(-c3nc(Nc4ccc(OCCN(C)C)c(NC(C)=O)c4)ncc3C(F)(F)F)c[nH]c12 [Compound 381, N-(2-(2-(dimethylamino)ethoxy)-5-((4-(7-methoxy-1H-indol-3-yl)-5-(trifluoromethyl)pyrimidin-2-yl)amino)phenyl)acetamide] | 7.2 | – |
| 88.6 | 5.3 | CC(=O)Nc1cc(Nc2ncc(C(F)(F)F)c(-c3c[nH]c4c(C)cccc34)n2)ccc1N1CC[C@@H](N(C)C)C1 [Compound R-366, (R)—N-(2-(3-(dimethylamino)pyrrolidin-1-yl)-5-((4-(7-methyl-1H-indol-3-yl)-5-(trifluoromethyl)pyrimidin-2-yl)amino)phenyl)acetamide] | 5.2 | – |
| 77.3 | 2.6 | CC(=O)Nc1cc(Nc2ncc(C(F)(F)F)c(-c3c[nH]c4c(F)cccc34)n2)ccc1OCCN(C)C [Compound 343, N-(2-(2-(dimethylamino)ethoxy)-5-((4-(7-fluoro-1H-indol-3-yl)-5-(trifluoromethyl)pyrimidin-2-yl)amino)phenyl)acetamide] | 4.3 | – |
| 285 | 25.9 | CCC(=O)Nc1cccc(Nc2ncc(C(F)(F)F)c(Nc3ccc(N4CCN(C(C)=O)CC4)cc3OC)n2)c1 [Compound 169, N-(3-((4-((4-(4-acetylpiperazin-1-yl)-2-methoxyphenyl)amino)-5-(trifluoromethyl)pyrimidin-2-yl)amino)phenyl)propionamide] | 43.8 | – |
| 1030 | 63.8 | COc1cnc(Nc2ccc(OCCN(C)C)c(NC(C)=O)c2)nc1-c1c[nH]c2c(C)cccc12 [Compound 284, N-(2-(2-(dimethylamino)ethoxy)-5-((5-methoxy-4-(7-methyl-1H-indol-3-yl)pyrimidin-2-yl)amino)phenyl)acetamide] | 15 | – |
| 129 | 4.7 | COc1cccc2c(-c3nc(Nc4ccc(N5CC[C@@H](N(C)C)C5)c(N)c4)ncc3C(F)(F)F)c[nH]c12 [Compound R-383, (R)-4-(3-(dimethylamino)pyrrolidin-1-yl)-N^1-(4-(7-methoxy-1H-indol-3-yl)-5-(trifluoromethyl)pyrimidin-2-yl)benzene-1,3-diamine] | 8.5 | – |
| 667 | 10.6 | CC(=O)Nc1cc(Nc2ncc(Cl)c(-c3c[nH]c4ccccc34)n2)ccc1N(C)C(=O)CCN(C)C [Compound 446, N-(2-acetamido-4-((5-chloro-4-(1H-indol-3-yl)pyrimidin-2-yl)amino)phenyl)-3-(dimethylamino)-N-methylpropanamide] | 4.9 | – |
| 691 | 96.8 | CCC(=O)Nc1cccc(Nc2ncc(Cl)c(Nc3ccc(C4CCCN(C)C4)cc3OC)n2)c1 (centres unmarked) [Compound 166, N-(3-((5-chloro-4-((2-methoxy-4-(1-methylpiperidin-3-yl)phenyl)amino)pyrimidin-2-yl)amino)phenyl)propionamide] | 39.5 | – |
| 52.5 | 5.3 | COc1cccc2c(-c3nc(Nc4ccc(N(C)CCN(C)C)c(NC(C)=O)c4)ncc3C(F)(F)F)c[nH]c12 [Compound 374, N-(2-((2-(dimethylamino)ethyl)(methyl)amino)-5-((4-(7-methoxy-1H-indol-3-yl)-5-(trifluoromethyl)pyrimidin-2-yl)amino)phenyl)acetamide] | 3.7 | – |
| > 20000 | > 1000 | CC(=O)Nc1cc(Nc2ncc(Cl)c(-c3cnc(C(C)C)n3C)n2)ccc1N(C)CCN(C)C [Compound 452, N-(5-((5-chloro-4-(2-isopropyl-1-methyl-1H-imidazol-5-yl)pyrimidin-2-yl)amino)-2-((2-(dimethylamino)ethyl)(methyl)amino)phenyl)acetamide] | – | – |
| 1260 | – | COc1cnc(Nc2ccc(N3CC[C@H](N(C)C)C3)c(NC(C)=O)c2)nc1-c1c[nH]c2c(OC)cccc12 [Compound S-288, (S)—N-(2-(3-(dimethylamino)pyrrolidin-1-yl)-5-((5-methoxy-4-(7-methoxy-1H-indol-3-yl)pyrimidin-2-yl)amino)phenyl)acetamide] | 16.9 | – |
| 1040 | – | COc1cccc2c(-c3nc(Nc4ccc(N5CC[C@@H](N(C)C)C5)c(NC(C)=O)c4)ncc3Cl)cn(C)c12 [Compound R-435, (R)—N-(5-(5-chloro-4-(7-methoxy-1-methyl-1H-indol-3-yl)pyrimidin-2-ylamino)-2-(3-(dimethylamino)pyrrolidin-1-yl)phenyl)acetamide] | 31.9 | – |
| 1010 | – | CC(=O)Nc1cc(Nc2ncc(Cl)c(-c3cn(C)c4ccccc34)n2)ccc1NCCN(C)C [Compound 400a, N-(5-((5-chloro-4-(1-methyl-1H-indol-3-yl)pyrimidin-2-yl)amino)-2-((2-(dimethylamino)ethyl)amino)phenyl)acetamide] | 42 | – |
| 923 | – | CC(=O)Nc1cc(Nc2ncc(C(F)(F)F)c(-c3cn(C)c4c(C)cccc34)n2)ccc1N1CC[C@@H](N(C)C)C1 [Compound R-373, (R)—N-(5-((4-(1,7-dimethyl-1H-indol-3-yl)-5-(trifluoromethyl)pyrimidin-2-yl)amino)-2-(3-(dimethylamino)pyrrolidin-1-yl)phenyl)acetamide] | 22.8 | – |
| 26.1 | – | COc1cccc2c(-c3nc(Nc4cc(NC(C)=O)c(N(C)CCN(C)C)cc4F)ncc3C(F)(F)F)c[nH]c12 [Compound 378, N-(2-((2-(dimethylamino)ethyl)(methyl)amino)-4-fluoro-5-((4-(7-methoxy-1H-indol-3-yl)-5-(trifluoromethyl)pyrimidin-2-yl)amino)phenyl)acetamide] | 43.4 | – |
| 1070 | – | CC(=O)Nc1cc(Nc2ncc(C(F)(F)F)c(-c3cn(C)c4ccccc34)n2)ccc1N(C)CCN(C)C [Compound 296, N-(2-((2-(dimethylamino)ethyl)(methyl)amino)-5-((4-(1-methyl-1H-indol-3-yl)-5-(trifluoromethyl)pyrimidin-2-yl)amino)phenyl)acetamide] | – | 10.7 |
